# Data as given in PubChem BioAssay (NCI).
#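 Grown in 96-well plates, cells were treated for 48 hours with each compound at five concentrations. Insufficient inhibition: endpoint recorded as highest concentration tested. GI50 marks 50% less growth. Definition used: TGI = concentration required for complete inhibition of growth.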 Where a SMILES comes first, the peptide text is derived from it. The star is where a group is joined. Cbz = O=C(OCc1ccccc1)*; CH2Cl = ClC*
# Tested on: ACHN renal
# Assay: NCI-60 cell line screen, 48 h
Compound,GI50 [µM],TGI [µM]
O=C(Nc1ccncc1)C(=O)c1cn(S(=O)(=O)c2ccc(F)cc2)c2ccccc12,5.76,> 100
COc1c(OC[C@H](O)CN2CCOCC2)ccc2c3n(c(=NC(=O)c4cccnc4C)nc12)CCN3,0.411,> 50
O=C(c1ccccc1Br)C(F)(F)F,,> 100
COc1ccc(-c2nc3ccc(-c4nc5ccc(N6CCN(c7ccccc7)CC6)cc5[nH]4)cc3[nH]2)cc1OC,2.28,10.2
O=C(N[C@@H](c1ccc(Cl)c(Cl)c1)C1CNC1)c1ccc2cnccc2c1,0.904,12
CO/N=C(\COc1ccc2c(c1)oc(=O)c1cc(OC)ccc12)c1ccc(OC)cc1,> 100,> 100
O=C1OCC2=C1C(c1cccc(Br)c1)c1cc3c(cc1N2CCO)CCC3 (stereo not given),0.0865,9.68
Nc1nc(/C=C\c2ccc([N+](=O)[O-])s2)nc(N2CCCC2)n1,0.743,10.9
Clc1ccc2[nH]cc(-c3nnnn3-c3ccccc3)c2c1,24.9,> 100
Oc1cccnc1[Se],,> 100
CC(C)Oc1ccc2cc(-c3nn(CC4CCNCC4)c4ncnc(N)c34)ccc2c1,10.5,22.2
CS(=O)(=O)CCNCc1nc(-c2ccc3ncnc(Nc4ccc(OCc5cccc(C(F)(F)F)c5)cc4)c3c2)cs1,> 21.9,> 25
CC(C)CC(NC(=O)OCc1ccccc1)C(=O)NC(Cc1ccccc1)C(=O)CCl (stereo not drawn) (Cbz-Leu-Phe-CH2Cl; configuration not given here),,11.3
[Cl][Hg][c]1cc[c]([Hg][Cl])o1,1.85,3.39
O=C1/C(=C/c2cccc(Cl)c2Cl)N=C(c2ccccc2)N1C1CC1,16.7,> 50
CCOC(=O)C(Cc1ccc(CCCC(=O)NCCC(=O)Nc2ccc3nc(C)sc3c2)cc1)C(=O)OCC,18.2,34.3
NCCNc1c2c(c(NCCN)c3[nH]ccc13)C(=O)c1ccccc1C2=O,0.124,0.706
COc1cc(Cn2c(-c3ccccc3)c(Cl)c3c2-c2oncc2CC3)cc(OC)c1,9.31,> 100
COc1ccc(-c2nn(-c3ccc(NC(=O)c4ccc(Cl)c(Cl)c4)cc3)cc2-c2ccncc2)cc1Cl,> 13.2,> 50
COc1cc2c3c(n(C)c(=O)c2cc1OC)-c1cc2c(cc1/C3=C\CN)OCO2,0.037,0.625
CN(C)C(n1cc2c(c1)-c1ccc(Cl)cc1C(c1ccccc1F)=NC2)n1cc2c(c1)-c1ccc(Cl)cc1C(c1ccccc1F)=NC2,,> 100
COc1ccc(/C=C2/N=C(c3ccccc3)N(c3c(C)n(C)n(-c4ccccc4)c3=O)C2=O)cc1OC,> 100,> 100
CCCN1C(=O)N(CCC)C2C1NC(=S)N2/N=C/C=C/c1ccccc1OC (stereo not given),0.631,81.1
CCn1c2ccccc2c2cc(NC(=O)Nc3ccc([N+](=O)[O-])cc3C)ccc21,3.56,14.9
COc1cc2c(cc1OCCCNC(=O)c1cccc3c(=O)c4ccccc4[nH]c13)N=C[C@@H]1CCCN1C2=O,0.0197,> 100
COc1cccc2c1C(=O)c1c(O)c3c(c(O)c1C2=O)C[C@](O)(C(=O)CO)C[C@H]3O[C@@H]1C[C@@H](NC(=O)CCCCCN(C)C2(c3ccc(F)cc3)CC3CCC2C3)[C@H](O)[C@@H](C)O1 (stereo not given in full),1.75,6.66
CCSc1ncnc2c1ncn2C1OC(CO)C(O)C1O (stereo not given),0.425,> 100
COc1ccc2c(c1)C(=O)c1c-2c(N2CCN(C(=O)CNCCNCCO)CC2)nc2ccccc12,11,24.9
COc1ccc(Nc2nnc(-c3cc(O)ccc3O)s2)cc1,> 50,> 50

# Tested on: HCT-116 colon
# Assay: NCI-60 cell line screen, 48 h
Compound,GI50 [µM],TGI [µM]
O=C(Nc1ccncc1)C(=O)c1cn(S(=O)(=O)c2ccc(F)cc2)c2ccccc12,0.781,34.1
COc1c(OC[C@H](O)CN2CCOCC2)ccc2c3n(c(=NC(=O)c4cccnc4C)nc12)CCN3,24.2,> 50
O=C(c1ccccc1Br)C(F)(F)F,,> 100
COc1ccc(-c2nc3ccc(-c4nc5ccc(N6CCN(c7ccccc7)CC6)cc5[nH]4)cc3[nH]2)cc1OC,0.281,1.11
O=C(N[C@@H](c1ccc(Cl)c(Cl)c1)C1CNC1)c1ccc2cnccc2c1,0.33,10.4
CO/N=C(\COc1ccc2c(c1)oc(=O)c1cc(OC)ccc12)c1ccc(OC)cc1,> 100,> 100
O=C1OCC2=C1C(c1cccc(Br)c1)c1cc3c(cc1N2CCO)CCC3 (stereo not given),0.0904,3.04
Nc1nc(/C=C\c2ccc([N+](=O)[O-])s2)nc(N2CCCC2)n1,1.1,4.68
Clc1ccc2[nH]cc(-c3nnnn3-c3ccccc3)c2c1,18.3,57.5
Oc1cccnc1[Se],,> 100
CC(C)Oc1ccc2cc(-c3nn(CC4CCNCC4)c4ncnc(N)c34)ccc2c1,6.78,19.8
CS(=O)(=O)CCNCc1nc(-c2ccc3ncnc(Nc4ccc(OCc5cccc(C(F)(F)F)c5)cc4)c3c2)cs1,> 18.7,> 25
CC(C)CC(NC(=O)OCc1ccccc1)C(=O)NC(Cc1ccccc1)C(=O)CCl (stereo not drawn) (Cbz-Leu-Phe-CH2Cl; configuration not given here),,3.31
[Cl][Hg][c]1cc[c]([Hg][Cl])o1,6.4,20.7
O=C1/C(=C/c2cccc(Cl)c2Cl)N=C(c2ccccc2)N1C1CC1,8.98,18.9
CCOC(=O)C(Cc1ccc(CCCC(=O)NCCC(=O)Nc2ccc3nc(C)sc3c2)cc1)C(=O)OCC,45.8,> 100
NCCNc1c2c(c(NCCN)c3[nH]ccc13)C(=O)c1ccccc1C2=O,< 0.0261,0.401
COc1cc(Cn2c(-c3ccccc3)c(Cl)c3c2-c2oncc2CC3)cc(OC)c1,3.47,14.9
COc1ccc(-c2nn(-c3ccc(NC(=O)c4ccc(Cl)c(Cl)c4)cc3)cc2-c2ccncc2)cc1Cl,2.5,> 50
COc1cc2c3c(n(C)c(=O)c2cc1OC)-c1cc2c(cc1/C3=C\CN)OCO2,0.0713,0.437
CN(C)C(n1cc2c(c1)-c1ccc(Cl)cc1C(c1ccccc1F)=NC2)n1cc2c(c1)-c1ccc(Cl)cc1C(c1ccccc1F)=NC2,,> 100
COc1ccc(/C=C2/N=C(c3ccccc3)N(c3c(C)n(C)n(-c4ccccc4)c3=O)C2=O)cc1OC,> 100,> 100
C[C@@H]1CC[C@@H]2[C@@H]1[C@H](OC(=O)/C=C/c1ccccc1)[C@]1(C3CCCCC3)C[C@@H](OC(=O)CO)[C@@]2(C)O1,1.92,4.13
CCCN1C(=O)N(CCC)C2C1NC(=S)N2/N=C/C=C/c1ccccc1OC (stereo not given),0.445,> 100
CCn1c2ccccc2c2cc(NC(=O)Nc3ccc([N+](=O)[O-])cc3C)ccc21,3.17,17.4
COc1cc2c(cc1OCCCNC(=O)c1cccc3c(=O)c4ccccc4[nH]c13)N=C[C@@H]1CCCN1C2=O,< 0.01,> 100
COc1cccc2c1C(=O)c1c(O)c3c(c(O)c1C2=O)C[C@](O)(C(=O)CO)C[C@H]3O[C@@H]1C[C@@H](NC(=O)CCCCCN(C)C2(c3ccc(F)cc3)CC3CCC2C3)[C@H](O)[C@@H](C)O1 (stereo not given in full),0.729,1.51
CCSc1ncnc2c1ncn2C1OC(CO)C(O)C1O (stereo not given),0.339,> 100
COc1ccc2c(c1)C(=O)c1c-2c(N2CCN(C(=O)CNCCNCCO)CC2)nc2ccccc12,1.59,3.07
COc1ccc(Nc2nnc(-c3cc(O)ccc3O)s2)cc1,21.9,> 50
